The record followed here is paper PMC5620277, “The histone methyltransferase EZH2 as a druggable target in SHH medulloblastoma cancer stem cells” (Oncotarget, 2017).

Assay [1] deals with MLL1 complex (Homo sapiens, UniProt Q03164). In words: Methyltransferase panel: MLL1 complex. The format is biochemical. Particulars: substrate nucleosomes. The method, then: (§1) MC3629 was tested in the cell free enzymatic assay (EZH2/PRC2) in 10-dose IC50 mode with 2-fold serial dilution starting from 400 μM solution, using various histone substrates (histone H3/H4 octamer, histone H3/H4 tetramer, histone H3, and core histone) and SAM as the co-substrate. […] (Figure 2B, and Supplementary Figure 2).
(§2) The appropriate methyltransferase (MT) substrate (0.05 mg/ml core histone for EZH1 complex, 0.05 mg/ml oligonucleosomes for DOT1L, 5 μM histone H3 (1-21) peptide for G9a, 0.05 mg/ml nucleosomes for MLL1 complex, 0.05 mg/ml core histone for SET7/9, 5 μM histone H4 for PRMT1, and 0.001 mg/ml poly(dI-dC) for DNMT1) was added in freshly prepared Reaction Buffer (50 mM Tris-HCl (pH 8.5), 5 mM MgCl2, 50 mM NaCl, 0.01% Brij35, 1 mM DTT, 1% DMSO). The MT enzyme was delivered into the substrate solution and the mixture was mixed gently. Afterwards, the tested compound dissolved in DMSO was delivered into the enzyme/substrate reaction mixture by using Acoustic Technology (Echo 550, LabCyte Inc. Sunnyvale, CA) in nanoliter range, and 1 μM ^3H-SAM was also added into the reaction mixture to initiate the reaction. The reaction mixture was incubated for 1 h at 30°C and then it was delivered to filter-paper for detection. The data were analyzed using Excel and GraphPad Prism software for IC50 curve fits (for EZH1 complex).

The subject of assay [2] is DAOY-SLCs. In words: Cell viability, MTS assay, DAOY-SLCs. The format is cell-based. The conditions noted are these: 5 μM, after 48 h. The method, then: To evaluate cell viability cells were plated at a density of 5×10^3 cells/well in 96-well plates and were incubated with MTS solution (CellTiter 96® AQueous One Solution Promega).
Assay [3] concerns the target T1, G9a (Homo sapiens, UniProt Q96KQ7).
T1 sequence (Q96KQ7 1-1210): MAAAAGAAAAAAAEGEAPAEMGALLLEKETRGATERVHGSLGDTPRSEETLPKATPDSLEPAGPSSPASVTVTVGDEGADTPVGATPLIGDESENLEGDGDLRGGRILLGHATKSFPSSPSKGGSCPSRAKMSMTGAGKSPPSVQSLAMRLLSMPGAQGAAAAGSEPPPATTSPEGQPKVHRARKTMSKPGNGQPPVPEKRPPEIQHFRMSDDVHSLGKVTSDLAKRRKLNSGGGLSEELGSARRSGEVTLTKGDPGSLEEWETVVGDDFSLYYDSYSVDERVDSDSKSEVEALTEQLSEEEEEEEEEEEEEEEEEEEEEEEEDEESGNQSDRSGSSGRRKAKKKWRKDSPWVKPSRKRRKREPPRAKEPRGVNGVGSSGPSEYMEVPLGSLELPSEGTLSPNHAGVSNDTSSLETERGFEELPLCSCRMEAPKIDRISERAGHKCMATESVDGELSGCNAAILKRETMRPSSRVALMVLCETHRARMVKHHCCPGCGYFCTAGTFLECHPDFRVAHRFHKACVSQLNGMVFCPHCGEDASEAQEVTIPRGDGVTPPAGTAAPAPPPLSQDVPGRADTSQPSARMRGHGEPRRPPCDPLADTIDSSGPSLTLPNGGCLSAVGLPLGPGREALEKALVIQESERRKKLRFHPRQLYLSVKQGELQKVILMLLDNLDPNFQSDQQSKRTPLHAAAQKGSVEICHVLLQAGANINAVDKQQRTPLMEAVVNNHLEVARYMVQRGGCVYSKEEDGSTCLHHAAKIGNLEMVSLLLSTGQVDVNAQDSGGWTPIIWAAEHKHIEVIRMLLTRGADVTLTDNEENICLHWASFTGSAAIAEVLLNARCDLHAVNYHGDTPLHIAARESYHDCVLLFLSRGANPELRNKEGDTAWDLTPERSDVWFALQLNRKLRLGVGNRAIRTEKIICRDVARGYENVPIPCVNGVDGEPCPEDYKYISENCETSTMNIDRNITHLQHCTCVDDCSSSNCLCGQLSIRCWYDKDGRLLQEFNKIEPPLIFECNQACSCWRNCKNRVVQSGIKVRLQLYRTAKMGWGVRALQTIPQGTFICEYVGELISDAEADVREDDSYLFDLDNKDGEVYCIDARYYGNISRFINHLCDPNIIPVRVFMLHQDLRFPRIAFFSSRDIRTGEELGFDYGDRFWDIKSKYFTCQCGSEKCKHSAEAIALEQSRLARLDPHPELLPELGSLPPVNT
In words: Methyltransferase panel: G9a. The format is biochemical. Particulars: substrate histone H3 1-21. The method, then: as §1, §2

Assay [4] concerns DAOY-SLCs orthotopic tumors (XT-MB). In words: Xenograft DAOY-SLCs orthotopic tumors (XT-MB) in nude mice. The format is in vivo, mouse. The conditions noted are these: 20 μMoles/Kg i.p. twice a week for 3 weeks. The method, then:
Next, we generated xenograft DAOY-SLCs orthotopic tumors (XT-MB) in nude mice that grew as tumor masses with the characteristics of MBs.
DAOY-SLCs were stereotaxically implanted into the cerebellum of nude mice by using the following coordinates according to the atlas of Franklin and Paxinos: 6.6 mm posterior to the bregma; 1 mm lateral to the midline; and 2 mm ventral from the surface of skull of mice, under ketamine (100 mg/kg, i.p.)/xylazine (10 mg/kg, i.p.) anesthesia. Cells (2×10^5 per 3 μl) were implanted at an infusion rate of 1 μl/min. Mice were separated into two groups. Group 1 (n=8) was intraperitoneally treated with MC3629 (20 μMoles/Kg) suspended in 10% (2-Hydroxypropyl)-β-cyclodextrin +1%DMSO (Sigma), Group 2 (n=8) was treated with 10% (2-Hydroxypropyl)-β-cyclodextrin +1%DMSO (Sigma). After 21 days of treatment, animals were sacrificed and brains were formalin fixed and paraffin embedded. Brain tumor volume calculation: Serial thick coronal sections (2 μm) starting from mesencephalon to the end of cerebellum were performed. The analysis was performed on 20 sections, sampled every 40 μm on the horizontal plan of the cerebellum, in which the tumor was identified and outlined at 2.5X magnification.
Every 40 μm of brain slice, hematoxylin and eosin (H&E) staining was performed. Tumor area of every slice was evaluated with a microscope (Axio Imager M1 microscope) equipped with a motorized stage and software Image Pro Plus 6.2. The following formula was used to calculate brain tumor volume: tumor volume = sum of (measured area for each slice x slice thickness x sampling frequency).
Paraffin-embedded sections were deparaffinized, and stained with either H&E or immunohistochemical stains as specified. Heat-induced epitope retrieval was performed with citrate buffer pH 6. Sections were incubated with ki67 primary antibody (Thermo Scientific) for 1 h. Ki67 expression was expressed as percentages of total cells with labeled nuclei.

Structures are written as SMILES.

The term inhibition denotes the relative decrease from the control value, in per cent. A higher inhibition goes with strong suppression. As for `Cc1cc(C)c(CNC(=O)c2cnn(-c3ccccc3)c2C)c(=O)[nH]1` [MC3629, N-((4,6-dimethyl-2-oxo-1,2-dihydropyridin-3-yl)methyl)-5-methyl-1-phenyl-1H-pyrazole-4-carboxamide], the inhibition at 200 µM in assay [1] turned out to be 20.7%. Further, the cell viability entry in assay [2] is on record as “impaired cell viability”. Also, the inhibition at 200 µM in assay [3] worked out at 5.1%. Further, in assay [4] (Western Blot), the “H3K27me3 in tumor xenografts” value was “reduction”; the “NANOG protein in tumors” value was “significantly lower levels”; the “apoptosis, level of cleaved caspase 3 in XT-MB” value is recorded as “induction of apoptosis”. For the same molecule, in assay [4] (immunostaining), the “proliferating Ki67-positive cells in tumors” value is recorded as “significant reduction”. Besides, the “XT-MB growth (xenograft volume)” value in assay [4] (nude mice) is reported as “significantly impaired”.
